From patent US11458141B2, “Aryl hydrocarbon receptor (AhR) agonists for the prevention and treatment of inflammatory disorders” (The Johns Hopkins University, priority 2017, dated 2022)
Entries after “also recorded” stand apart in the source; their conditions may differ.

What was measured:
[1] = test system: mice with NEC; experiment: Maternal I3C administration, Tnf alpha and Il6 mRNA in ileum of offspring with NEC; type: in vivo, mouse; conditions: mums 25 mg/kg oral gavage E7 to P7, NEC groups
Description: The pups whose mums received 25 mg/kg indole-3-carbinol (13C) by oral gavage starting from the embryonic age 7 (E7) of the fetus until the postnatal day 7 (P7) were included in maternal […]-rich group, while the pups whose mums received vehicle were included in maternal […]-free group. Necrotizing enterocolitis (NEC) was induced in 7-day-old mouse pups by gavage feeding and hypoxia exposure for 4 days. The ileum was harvested at the end of experiment and the mRNA expression of target genes was analyzed by qPCR. Referring now to FIG. 8, the mRNA expression of pro-inflammatory cytokine tumor necrosis factor alpha (Tnf alpha) was quantified in the ileum of experimental NEC models. Data are represented as mean±SEM; *p<0.05 between indicated groups; each dot represents an individual mouse. […] Referring now to FIG. 9, the mRNA expression of pro-inflammatory cytokine Interleukin-6 (Il6) was quantified in the ileum of experimental NEC models. Data are represented as mean±SEM; *p<0.05 between indicated groups; each dot represents an individual mouse.

[2] = test system: Toll-like receptor 4 (Tlr4) mRNA in IEC-6 cells; experiment: Tlr4 mRNA and microRNA expression in IEC-6 cells treated with I3C; type: cell-based, rat
Description: Rat intestinal epithelial cell line IEC-6 was treated with aryl hydrocarbon receptor (AHR) agonist indole-3-carbinol (13C) for 4 and 6 hours, and then the expression of Toll-like receptor 4 (Tlr4) mRNA and the microRNAs, which have been reported to down-regulate Tlr4 transcription, were quantified, respectively. Referring now to FIG. 22, the mRNA expression of Tlr4 was quantified in IEC-6 cells treated with AHR agonist […] for 6 hours. Data are represented as mean±SEM; *p<0.05 between indicated groups; each dot represents an individual sample. […] Referring now to FIG. 23, the expression of let-7i, miR-223, and miR-146b, which are microRNAs known to inhibit Tlr4 mRNA expression, was quantified in IEC-6 cells treated with AHR agonist […] for 4 hours. Data are represented as mean±SEM; *p<0.05 between indicated groups; each dot represents an individual sample.

[3] = test system: Tlr4 mRNA in the ileum; experiment: Ileal Tlr4 mRNA and microRNA expression in neonatal mice given I3C; type: in vivo, mouse; conditions: 7-day-old mice, 25 mg/kg oral gavage, after 24 hours
Description: Neonatal mice at the age of 7 days old were given AHR agonist […] (25 mg/kg) via oral gavage, and the ileal expression of Tlr4 mRNA and microRNAs, which have been reported to down-regulate Tlr4 transcription, were quantified after 24 hours. Referring now to FIG. 24, the mRNA expression of Tlr4 was quantified in the ileum of neonatal mice treated with AHR agonist […]. Data are represented as mean±SEM; *p<0.05 between indicated groups; each dot represents an individual mouse. […] Referring now to FIG. 25, the expression of let-71, miR-223, and miR-146b, which are microRNAs known to inhibit Tlr4 mRNA expression, was quantified in the ileum of neonatal mice treated with AHR agonist […]. Data are represented as mean±SEM; *p<0.05 between indicated groups; each dot represents an individual mouse.

[4] = test system: AHR activation and TLR4 signaling in enteroids; experiment: Mouse enteroids: Cypla1 induction and TLR4 signaling; type: cell-based; conditions: I3C 200 μM
Excerpt: AHR activation by I3C or breast milk limits TLR4 signaling in the intestinal epithelium (FIG. 14). In seeking to investigate how AHR signaling attenuates NEC severity, whether AHR activation could limit the degree of TLR4 signaling in the gut was investigated. To do so, enteroids were derived from wild-type mice, which are intestinal cultures containing all cell lineages derived from intestinal crypts, as have been described.

For OCc1c[nH]c2ccccc12 [I3C, indole-3-carbinol], the “Il6 mRNA expression in offspring” value [1] was “significantly reduced the Il6 expression”, the “Tnf alpha mRNA expression in offspring” value [1] was “significantly reduced the Tnf alpha expression” and the “expression of let-7i” value ([2]; 4 hours) was “significantly increased”. The “expression of miR-146b” value ([2]; 4 hours) was “significantly increased”, the “expression of miR-223” value ([2]; 4 hours) was “significantly increased” and the “mRNA expression of Tlr4” value ([2]; 6 hours) was “significantly reduced the expression of Tlr4 mRNA”. The “expression of let-7i in the ileum” value [3] was “significantly increased”, the “expression of miR-146b in the ileum” value [3] was “significantly increased” and the “expression of miR-223 in the ileum” value [3] was “significantly increased”. The “mRNA expression of Tlr4 in the ileum” value [3] was “significantly reduced the expression of Tlr4 mRNA”, the Cypla1 induction ([4]; enteroids from wild-type mice) was “significantly induced the downstream molecule Cypla1; also recorded: induces Cypla1” and the “TLR4 signaling (cytokine/TNF induction)” value ([4]; enteroids, conditioned media from NEC stool bacteria) was “reduced TLR4 signaling; also recorded: reduces TNF”.
